Assay results reported in PMC4673935, “Synthesis, Antiplatelet Activity and Cytotoxicity Assessment of Indole-Based Hydrazone Derivatives” (Iranian Journal of Pharmaceutical Research : IJPR, 2015).
Where two headings read alike, the source gives them in different places.

Experiments:
[1] = Cytotoxicity assay, MTT method; format: cell-based; conditions: mouse, fibroblast L929 cell line, 24 h of exposure
Description: (§1) The synthesized derivatives were assayed for their toxicity on Fibroblast L929 cell line by MTT [[…]] method. The compounds were initially screened at 100 µM concentration and IC50 was calculated for those showing more than 50% toxicity. The detailed procedure has been described in our previous work([18]).

[2] = system: Fibroblast L929 cell line; assay: Cytotoxicity assay, MTT method; format: cell-based; conditions: 24 h of exposure
Description: as §1

[3] = system: human platelet rich plasma (PRP), ADP-induced platelet aggregation; set-up: method as in PMID 23154304; conditions: inducer ADP, obtained in previous study, read-out: Antiplatelet aggregation activity, IC50, ADP; cited from earlier work
[4] = system: human platelet rich plasma (PRP), collagen-induced platelet aggregation; assay: Collagen-induced platelet aggregation in human platelet rich plasma (Born turbidimetric method); format: cell-based; conditions: inducer collagen (5 µM); for IC50: Platelet, read-out: Antiplatelet aggregation activity, IC50, Collagen
Description: (§2) The in vitro antiplatelet activity of the derivatives was evaluated using human platelet rich plasma (PRP)on an APACT 4004 aggregometerby Born’s reported turbidimetric method([16]). ADP (5 µM), arachidonic acid (1.25 mg/mL) and collagen (5 µM) were used as inducers of platelet aggregation. IC50 was defined as the concentration of the test compound that inhibits the platelet aggregation by 50%. The detailed procedure has been described in our previous works([11],[12],[17]).

[5] = system: human platelet rich plasma (PRP), arachidonic acid-induced platelet aggregation; set-up: method as in PMID 23154304; conditions: inducer arachidonic acid, obtained in previous study, read-out: Antiplatelet aggregation activity, IC50, AA; cited from earlier work
[6] = system: human platelet rich plasma (PRP), arachidonic acid-induced platelet aggregation; assay: Arachidonic acid-induced platelet aggregation in human platelet rich plasma (Born turbidimetric method); format: cell-based; conditions: inducer arachidonic acid 1.25 mg/mL; for IC50: Platelet, read-out: Antiplatelet aggregation activity, IC50, AA
Description: as §2

[7] = system: human platelet rich plasma (PRP), ADP-induced platelet aggregation; assay: ADP-induced platelet aggregation in human platelet rich plasma (Born turbidimetric method); format: cell-based; conditions: inducer ADP 5 µM, read-out: Antiplatelet aggregation activity, IC50, ADP
Description: as §2

Compound	IC50 at 24 h ([1]; L929 fibroblast cells)	Cytotoxicity, IC50 [2]	IC50 [3]	IC50 [4]	Antiplatelet aggregation activity, IC50, Collagen [4]	IC50 [5]	IC50 [6]	IC50 [7]	Antiplatelet aggregation activity, IC50, AA [6]	IC50 at 24 h [1]	melting point
C(=NNc1ccccc1)c1c[nH]c2ccccc12 [1a, indole-3-carboxaldehyde phenylhydrazone]	> 100 µM	not toxic to fibroblast cells	> 100 µM	38.8 µM	moderate activity	10 µM	–	–	–	–	–
Fc1ccc(N/N=C/c2c[nH]c3ccccc23)cc1 [1b]	> 100 µM	not toxic to fibroblast cells	–	> 100 µM	–	–	28.8 µM	> 100 µM	–	–	–
Clc1ccccc1NN=Cc1c[nH]c2ccccc12 [1c, Indole-3-carboxaldehyde 2-chlorophenylhydrazone]	45.9 µM	–	–	85.6 µM	–	–	14.6 µM	> 100 µM	still acceptable	–	–
Clc1cccc(NN=Cc2c[nH]c3ccccc23)c1 [1d, Indole-3-carboxaldehyde 3-chlorophenylhydrazone]	–	–	–	> 100 µM	–	–	28.1 µM	> 100 µM	–	33.9 µM	211 to 214 °C
Clc1ccc(N/N=C/c2c[nH]c3ccccc23)cc1 [1e]	–	–	–	62.5 µM	moderate activity	–	22.5 µM	> 100 µM	–	66.7 µM	–
Brc1ccc(N/N=C/c2c[nH]c3ccccc23)cc1 [1f]	59.8 µM	–	–	> 100 µM	–	–	21.2 µM	100 µM	still acceptable	–	–
Cc1ccccc1NN=Cc1c[nH]c2ccccc12 [1g, Indole-3-carboxaldehyde 2-methylphenylhydrazone]	85.1 µM	–	–	75.2 µM	moderate activity	–	56.8 µM	> 100 µM	–	–	176 to 178 °C
Cc1ccc(NN=Cc2c[nH]c3ccccc23)cc1 [1h, Indole-3-carboxaldehyde 4-methylphenylhydrazone]	> 100 µM	not toxic to fibroblast cells	–	> 100 µM	–	–	57.2 µM	> 100 µM	–	–	–
COc1ccc(NN=Cc2c[nH]c3ccccc23)cc1 [1i, Indole-3-carboxaldehyde 4-methoxyphenylhydrazone]	74.5 µM	–	–	> 100 µM	–	–	7.13 µM	> 100 µM	–	–	–
O=C(NN=Cc1c[nH]c2ccccc12)c1ccccc1 [2a, Indole-3-carboxaldehyde benzoylhydrazone]	> 100 µM	–	–	> 100 µM	–	–	> 100 µM	> 100 µM	–	–	238 to 241 °C
O=C(NN=Cc1c[nH]c2ccccc12)c1cccc(Cl)c1 [2b, Indole-3-carboxaldehyde 3-chlorobenzoylhydrazone]	> 100 µM	–	–	> 100 µM	–	–	> 100 µM	> 100 µM	–	–	215 to 218 °C
O=C(NN=Cc1c[nH]c2ccccc12)c1ccc(Cl)cc1 [2c, Indole-3-carboxaldehyde 4-chlorobenzoylhydrazone]	> 100 µM	–	–	> 100 µM	–	–	> 100 µM	> 100 µM	–	–	–
O=C(NN=Cc1c[nH]c2ccccc12)c1ccc([N+](=O)[O-])cc1 [2d, Indole-3-carboxaldehyde 4-nitrobenzoylhydrazone]	> 100 µM	–	–	> 100 µM	–	–	> 100 µM	> 100 µM	–	–	250 to 253 °C
Cc1cccc(C(=O)NN=Cc2c[nH]c3ccccc23)c1 [2e, Indole-3-carboxaldehyde 3-methylbenzoylhydrazone]	> 100 µM	–	–	> 100 µM	–	–	> 100 µM	> 100 µM	–	–	212 to 214 °C
Cc1ccc(C(=O)NN=Cc2c[nH]c3ccccc23)cc1 [2f, Indole-3-carboxaldehyde 4-methylbenzoylhydrazone]	> 100 µM	–	–	> 100 µM	–	–	> 100 µM	> 100 µM	–	–	> 270 °C
O=C(N/N=C/c1c[nH]c2ccccc12)c1ccncc1 [2g]	> 100 µM	–	> 100 µM	> 100 µM	–	> 100 µM	–	–	–	–	–
O=C(N/N=C/c1c[nH]c2ccc(Cl)cc12)c1ccccc1 [3a]	> 100 µM	–	–	> 100 µM	–	–	> 100 µM	> 100 µM	–	–	–
O=C(NN=Cc1c[nH]c2ccc(Cl)cc12)c1cccc(Cl)c1 [3b, 5-Chloroindole-3-carboxaldehyde 3-chlorobenzoylhydrazone]	55.5 µM	–	–	> 100 µM	–	–	> 100 µM	> 100 µM	–	–	230 to 233 °C
O=C(N/N=C/c1c[nH]c2ccc(Cl)cc12)c1ccc(Cl)cc1 [3c]	71.3 µM	–	–	> 100 µM	–	–	> 100 µM	> 100 µM	–	–	–
O=C(NN=Cc1c[nH]c2ccc(Cl)cc12)c1ccc([N+](=O)[O-])cc1 [3d, 5-Chloroindole-3-carboxaldehyde 4-nitrobenzoylhydrazone]	> 100 µM	–	–	> 100 µM	–	–	> 100 µM	> 100 µM	–	–	> 270 °C
Cc1cccc(C(=O)NN=Cc2c[nH]c3ccc(Cl)cc23)c1 [3e, 5-Chloroindole-3-carboxaldehyde 3-methylbenzoylhydrazone]	49.6 µM	–	–	> 100 µM	–	–	> 100 µM	> 100 µM	–	–	226 to 228 °C
Cc1ccc(C(=O)NN=Cc2c[nH]c3ccc(Cl)cc23)cc1 [3f, 5-Chloroindole-3-carboxaldehyde 4-methylbenzoylhydrazone]	62.7 µM	–	–	> 100 µM	–	–	> 100 µM	> 100 µM	–	–	244 °C (dec.)
O=C(NN=Cc1c[nH]c2ccc(Cl)cc12)c1ccncc1 [3g, 5-Chloroindole-3-carboxaldehyde isonicotinoylhydrazone]	> 100 µM	–	–	> 100 µM	–	–	> 100 µM	> 100 µM	–	–	> 270 °C
CC(=O)Oc1ccccc1C(=O)O [Aspirin, reference compound]	–	–	–	9.7 µM	–	–	30.3 µM	> 100 µM	–	–	–
COc1ccc2c(c1)c(CC(=O)O)c(C)n2C(=O)c1ccc(Cl)cc1 [Indometacin, reference compound]	–	–	–	1.5 µM	–	–	3 µM	> 100 µM	–	–	–
